Experimental data: patent US20010005714A1, “AMPHIPATHIC MOLECULES AS CHOLESTEROL AND OTHER LIPID UPTAKE INHIBITORS” (priority 1996, published 2001)

Tests used:
[1] = system: BBMVs; test: Inhibition of cholesteryl oleate uptake by BBMVs by peptides of varying lengths (Example 8); type: biochemical; settings: for Inhibition of Cholesteryloleate Uptake In. %: donor 0.05 mg total lipid/ml, acceptor 5 mg protein/ml, 23° C.
Method: going from one peptide to the other (top→bottom) 3 amino acids were removed from the N-terminus. The inhibitory effect of the four peptides listed above were compared at 120 μg peptide/ml. The lipid uptake by BBMVs was measured in the presence of 120 μg peptide/ml each as described below.
Donor and acceptor particles dispersed in Tris/NaCl buffer were centrifuged in a Beckman airfuge at 115000 g is for 2 min at 4° C. The dispersion of the acceptor yielded a pellet which was resuspended in Tris/NaCl buffer. Varying amounts of inhibitor dissolved in the same buffer were added to the acceptor dispersion and at time zero the dispersiorn of acceptor with or without inhibitor was mixed with the top 80% of the supernatant obtained by centrifugation of the donor dispersion. The final concentration of the donor was 0.05 mg total lipid/ml and that of the acceptor was 5 mg protein/ml. The resulting dispersion was incubated at 23° C. and after timed intervals the sterol uptake was stopped by dilution of the incubation medium with 2 volumes of Tris/NaCl buffer. BBMV were separated from the donor by centrifugation in the Beckman airfuge at 115000 g for 2 min at 4° C. The radioactivities in the supernatant containing the donor and in the pellet containing the BBMV (acceptor) were determined in a Beckman LS 7500 scintillation counter.

[2] = system: brush border membrane vesicles (BBMV); test: IC50 of cholesteryl oleate uptake at the brush border membrane (Example 6); type: biochemical, rabbit; settings: donor 0.1 mg total lipid/ml, acceptor 2 mg protein/ml; 20 min at 25° C.
Method: An appropriate amount of inhibitor dissolved in 84.5 μl buffer (0.05 M Tris pH 7.4, 0.15 M NaCl) is mixed in an Eppendorf tube at time zero with 5 μl of a dispersion of donor and 10.5 μl of a dispersion of acceptor (i.e. brush border membrane vesicles (BBMV)) in the same buffer. The final concentration of the donor vesicles was 0.1 mg total lipid/ml, that of the acceptor was 2 mg protein/ml. The resulting mixture was incubated for 20 min at 25° C., and the reaction was stopped by adding 60 μl of the incubation medium to 120 μl ice-cold bufferin an airfuge tube. The diluted dispersion was immediately centrifuiaed in the airfuge at […] for 2 min. at 4° C. to separate donor vesicles from BBMV. Two 60 μl aliquots of the donor (=supernatant) were counted in a Beckman LS-7500 liquid scintillating counter to determine the radioactivity remaining in tbe donor.
Small unilamellar egg phosphatidycholine (PC) vesicles containing 1 mol % of cholesterol oleate and a trace amount of ^3H-cholesterol oleyl ether were made by dissolving the appropriate amounts of the lipids in CHCl3/CH3OH, (2:1, by vol.), taking the solution to dryness on a rotary evaporator and drying the residue in vacuo. The dried lipid film was dispersed in the appropriate volume of buffer by hand-shaking. The lipid dispersion was subjected to tip sonication as described in Brunner et al, J. Biol. Chem. 253 7538-7546 (1978). The resulting donor dispersion in buffer was centrifuged in the airfuge at 100000 g for 2 min at […]. Only the top 80% of the donor dispersion after centrifugation was used in the lipid uptake experiment.
BBMV were prepared from frozen rabbit small intestine according to Hauser et al (Biochim. Biophys. Acta 602 567-577 (1980)). Prior to use in the uptake experiment determining IC50 values the BBMV were washed to remove any free protein liberated from the BBM. To this end the BBMV dispersion was diluted with buffer 1:1 in an airfuge tube, and the diluted dispersion was centrifuged in the airfuga at 100000 g for 2 min at […]. The supernatant was is carefully decanted, the pellet was resuspended in buffer to the original volume of the BBMV dispersion, and the dispersion was homogenized. […]

[3] = system: normal human BBMV; test: [14C]Cholesterol uptake from egg PC vesicles by normal human duodenal BBMV; type: biochemical; settings: human duodenal BBMV
Method: Biopsy samples from human duodenum, 20 to 30 mg of wet tissue each, were suspended in 200 μl buffer (12 mM Tris HCl pH 7.2, 300 mM mannitol, 5 mM EGTA, 1 mM phenylmethylsulfonyl fluoride), frozen in liquid nitrogen and stored at −80° C. prior to use. BBMV were prepared by Mg^+2 precipitation (Hauser et al, Biochim. Biophys. Acta 602 567-577 (1980)) as described in detail by Booth et al (Lancet 1 1066-1069 (1985)). Proteinase K treatment of the BBMV was carried out according to Thurnhofer and Hauser (Biochim. Biophys. Acta 1024 249-262 (1990)). […] Small unilamellar phesrholipid vesicles were prepared by tip sonication (Schulthess, Biochemistry 33 4500-4508 (1994)).
(I) Egg PC small unilamellar vesicles containing […] (^14C] cholesterol and BBMV both dispersed in 10 mM Tris-HCl pH 7.2, 0.15 M NaCl, 5 mM EDTA were incubated at room temperature. After timed intervals phospholipid vesicles and BBMV were separated by centrifugation at 115000 g for 2 min in a Beckman airfuge. The radioactivities present in pellet and supernatant were determined by counting aliquots in a Beckman LS 7500 liquid scintillatior counter. Fusion of egg PC small unilamellar vesicles and BBMV as a possible mechanism of cholesterol uptake was ruled out as discussed in detail in previous studies (Thurnhofer and Hauser, Biochemistry 29 2142-2148 (1990); Compassi, Biochemistry 34 16473-16482 (1995) and Schulthess, J. Lipid. Res. 37 2405-2419 (1996)).
The experimental data were computer-fitted using the following equation valid for single-exponential exchange reactions: X=X∞+[XO−X∞]e^-k1^[(a+b)/a]t, where XO, X and X∞represent the fractions of the labelled lipid in the donor at times 0, t and at equilibrium, respectively. K1 is the pseudo-first-order rate constant of the reaction and a and b are the lipid pools of acceptor and donor, respectively (McKay, Nature 142 997-998 (1938) and Mutsch et al, Biochemistry 25 2134-2140 (1986).
Kinetic measurements were also carried out in the presence of inhibitors; synthetic peptides or apolipoproteins were added to the […] of donor and acceptor vesicles. Cholesterol uptake by native and proteinase K treated BBMV was determined in the presence of increasing concentrations of Ac-18A-NH2, the difference between cholesterol uptake by native and proteinase K treated BBMV is referred as protein-mediated cholesterol uptake in FIG. 6. The IC50 values were determined according to Methods Enzymol. 37 3-22 (1975).

[4] = system: rabbit BBMV; test: Dose response of cholesteryl oleate uptake from egg PC SUVs by rabbit BBMV (FIG. 4B); type: biochemical; settings: donor 0.05 mg/ml total lipid, acceptor 1.7 mg protein/ml, 20 min at 25° C., curve fits of FIG. 4B
Method: Small unilamellar vesicles of egg phosphatidylcholine containing 1 mol % cholesteryl oleate and a trace amount of (1,2-^3H2 (N)]-cholesteryl oleyl ether (37 Ci/mmol, from Amersham, UK) as the donor were made as described in Example 1 and BBMVs as the acceptor were prepared from rabbit small intestine (see Example 1). Donor and acceptor both dispersed in Tris/NaCl buffer (0.05 M Tris HCl pH 7.4, 0.15 M NaCl, 0.02% NaN3) and a solution of human apo A-1 or sheep HDL in the same buffer were mixed at time zero (total volume: 0.1 ml) so that the final concentrations of donor and acceptor were 0.05 mg/ml total lipid and 1.7 mg protein/ml, respectively. After incubation of the suspension of donor and acceptor in the presence of inhibitor for 20 min. at 25° C., the reaction was stopped by dilution with 2 vol. of Tris/NaCl buffer. Donor and acceptor were separated by centrifugation in the airfuge at 115,000 g for 2 min. at […]., and the radioactivities in the supernatant containing donor vesicles and in the pellet containing BBMVs were determined in a BECKMAN™ LS 7500 scintillation counter. […]
Experimental conditions were as described for FIG. 4A. The cholesterol absorption activity of BBMVs measured in the absence of inhibition was taken as 100% and the loss in activity observed in the presence of inhibitor is expressed as %. […]

[5] = taken from Chapman (1986), for comparison; cited from earlier work

Molecule | IC50 [2] [µM] | IC50 (μg/mL) of cholesteryl oleate uptake at the brush border membrane [2] [µg/mL] | further results
Ac-Lys-Alα-Phe-Tyr-Asp-Lys-Val-Alα-Glu-Lys-Leu-Lys-Glu-Alα α-Phe-NH2 (Ac-KAFYDKVAEKLKEAF-NH2) [Ac-15A-NH2] | – | – | inhibitory effect on cholesteryl oleate uptake (in words, footnote) ([1]; 120 μg peptide/ml): Useful inhibitory effect is seen with Peptides Nos. 1 and 2.; Inhibition of Cholesteryloleate Uptake In. % ([1]; 120 μg peptide/ml): 85%; cholesteryl oleate uptake inhibition activity relative to Ac-18A-NH2 ([1]; brush border membrane vesicle model): 85%
CH3CO—VAEKLKEAF—NH2 (Ac-VAEKLKEAF-NH2) [Ac-9A-NH2] | – | – | Inhibition of Cholesteryloleate Uptake In. % ([1]; 120 μg peptide/ml): 0%
Apo C-31: natural (human) apoprotein C-III1 | 0.6 ± 0.1 | 4.8 ± 0.8 | –
Apo C-1: natural (human) apoprotein C-I (TPDVSSALDKLKEFGNTLEDKARELISRIKQSELSAKMREWFSETFQKVKEKLKIDS; Apolipoprotein C-I; UniProt P02654 27-83, looked up) | 1.8 ± 0.4 | 12 ± 2 | –
CH3CO—YDKVAEKLKEAF—NH2 (Ac-YDKVAEKLKEAF-NH2) [Ac-12A-NH2] | – | – | Inhibition of Cholesteryloleate Uptake In. % ([1]; 120 μg peptide/ml): 20%
Ac-Asp-Trp-Leu-Alα—Lys-Asp-Tyr-Phe-Lys-Lys-Alα —Leu-Val-Glu-Glu-Phe-Alα—Lys-NH2 [scrambled Ac-18A-NH2, reference compound] | – | – | inhibition of protein-mediated cholesterol uptake (in words) [3]: inactive
Apo C-32: natural (human) apoprotein C-III2 | 0.5 ± 0.2 | 4.2 ± 0.2 | –
Apo E: natural (human) apoprotein E | 2.9 ± 0.2 | 95 ± 7 | –
apo A-II: human apolipoprotein A-2 | 3.8 ± 0.3 | 66 ± 5 | IC-50 [4]: 66 µg/mL
Apo A-4: natural (human) apoprotein A-IV (protein, UniProt P06727 21-396, looked up) Apolipoprotein A-IV: EVSADQVATVMWDYFSQLSNNAKEAVEHLQKSELTQQLNALFQDKLGEVNTYAGDLQKKLVPFATELHERLAKDSEKLKEEIGKELEELRARLLPHANEVSQKIGDNLRELQQRLEPYADQLRTQVSTQAEQLRRQLTPYAQRMERVLRENADSLQASLRPHADELKAKIDQNVEELKGRLTPYADEFKVKIDQTVEELRRSLAPYAQDTQEKLNHQLEGLTFQMKKNAEELKARISASAEELRQRLAPLAEDVRGNLRGNTEGLQKSLAELGGHLDQQVEEFRRRVEPYGENFNKALVQQMEQLRQKLGPHAGDVEGHLSFLEKDLRDKVNSFFSTFKEKESQDKTLSLPELEQQQEQQQEQQQEQVQMLAPLES | 0.7 ± 0.1 | 32 ± 4 | –
rabbit apo A-1: rabbit apolipoprotein A-1, literature values for comparison (protein, UniProt P09809 25-266, looked up, Apolipoprotein A-I, rabbit apolipoprotein A-1, literature values for comparison) Apolipoprotein A-I: DEPRSSWDKIKDFATVYVDTVKDSGREYVAQFEASAFGKQLNLKLLDNWDSLSSTVSKLQEQLGPVTQEFWDNLEKETEGLREEMNKDLQEVRQKVQPYLDEFQKKWQEEVERYRQKVEPLGAELRESARQKLTELQEKLSPLAEELRDSARTHVDTLRTKLAPYSNELQQRLAARLESIKEGGGASLAEYQAKAREHLSVLSEKARPALEDLRQGLLPVLESFKASVQNVLDEATKKLNTQ | – | – | isoelectric point [5]: 5.50
Apo C-2: natural (human) apoprotein C-II (protein, UniProt P02655 29-101, looked up, Apolipoprotein C-II) Apolipoprotein C-II: DEMPSPTFLTQVKESLSSYWESAKTAAQNLYEKTYLPAVDEKLRDLYSKSTAAMSTYTGIFTDQVLSVLKGEE | 2.1 ± 0.1 | 19 ± 1 | –
